{
  "source": "paper PMC3063124",
  "about": "(The Journal of neuroscience : the official journal of the …, 2011)",
  "key": {"[1]": {"target": "GluN1/GluN2D (Rattus norvegicus, UniProt P35439+Q62645)", "sequence (Q62645 28-1323, other chains not shown)": "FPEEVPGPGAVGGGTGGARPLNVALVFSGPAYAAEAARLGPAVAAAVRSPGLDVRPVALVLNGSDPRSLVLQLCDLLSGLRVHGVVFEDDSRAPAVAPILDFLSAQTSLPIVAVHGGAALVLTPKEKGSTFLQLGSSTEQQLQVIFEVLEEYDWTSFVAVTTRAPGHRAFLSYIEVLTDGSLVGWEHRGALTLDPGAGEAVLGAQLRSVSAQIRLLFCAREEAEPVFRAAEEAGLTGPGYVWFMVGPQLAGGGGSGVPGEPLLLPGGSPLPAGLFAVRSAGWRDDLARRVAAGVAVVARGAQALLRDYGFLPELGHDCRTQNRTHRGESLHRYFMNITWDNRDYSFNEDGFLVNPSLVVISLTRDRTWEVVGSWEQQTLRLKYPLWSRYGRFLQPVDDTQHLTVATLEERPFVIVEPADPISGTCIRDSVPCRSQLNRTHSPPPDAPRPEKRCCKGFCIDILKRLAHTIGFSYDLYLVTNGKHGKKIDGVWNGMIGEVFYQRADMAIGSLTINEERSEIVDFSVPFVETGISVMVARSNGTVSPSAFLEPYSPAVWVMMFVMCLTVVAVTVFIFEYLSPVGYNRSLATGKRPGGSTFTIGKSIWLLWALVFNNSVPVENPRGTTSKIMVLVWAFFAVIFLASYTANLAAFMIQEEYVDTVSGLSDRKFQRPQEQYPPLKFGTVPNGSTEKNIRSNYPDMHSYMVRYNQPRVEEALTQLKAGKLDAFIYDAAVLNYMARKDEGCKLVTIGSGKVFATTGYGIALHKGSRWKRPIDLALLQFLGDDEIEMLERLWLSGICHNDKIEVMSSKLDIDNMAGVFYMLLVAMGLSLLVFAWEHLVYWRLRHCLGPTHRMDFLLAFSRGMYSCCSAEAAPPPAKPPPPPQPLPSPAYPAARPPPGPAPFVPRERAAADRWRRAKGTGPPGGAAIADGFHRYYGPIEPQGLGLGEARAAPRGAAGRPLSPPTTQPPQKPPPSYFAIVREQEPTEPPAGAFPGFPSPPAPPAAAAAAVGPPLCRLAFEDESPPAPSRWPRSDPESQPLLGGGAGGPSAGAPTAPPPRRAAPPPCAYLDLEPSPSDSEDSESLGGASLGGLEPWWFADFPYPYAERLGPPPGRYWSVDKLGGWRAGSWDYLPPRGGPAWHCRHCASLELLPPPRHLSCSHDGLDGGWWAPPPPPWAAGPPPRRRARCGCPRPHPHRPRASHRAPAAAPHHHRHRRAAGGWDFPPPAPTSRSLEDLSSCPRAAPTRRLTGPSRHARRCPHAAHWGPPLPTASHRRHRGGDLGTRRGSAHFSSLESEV", "conditions": "read-out: EC50 of agonist"}, "[2]": {"target": "GluN1/GluN2D (Rattus norvegicus, UniProt Q62645)", "sequence (Q62645 28-1323, other chains not shown)": "as above", "type": "cell-based", "conditions": "absence of QNZ46; continuous presence of glycine"}},
  "note": "Read-outs that look alike come from different tables or passages of the source.",
  "data": [
    {"smiles": "N[C@@H](CCC(=O)O)C(=O)O", "note": "[glutamate]", "values": [
      {"measurement": "EC50", "setting": "[1]; in the absence of QNZ46", "value": 440, "unit": "nM"},
      {"measurement": "EC50", "setting": "[1]; in the presence of 10 μM QNZ46", "value": 220, "unit": "nM"},
      {"measurement": "time constant for agonist deactivation (τweighted)", "setting": "[2]", "value": 3810, "unit": "ms"}
    ]}
  ]
}
